Laboratory results: patent US20140141137A1, “Encapsulated Antimicrobial Material” (Danisco A/S, priority 2012, published 2014)

Legend:
[1] = tested on: yeast; experiment: Leavening of bread dough containing natamycin; type: cell-based; settings: 12 ppm on flour weight; about 50 minutes, 85% relative humidity, 40° C.
Protocol: (§1) A bread is made by preparing a dough containing flour, water, yeast, salt and a dough conditioner. Included in the dough mix is either natamycin or encapsulated natamycin or neither. […] All ingredients are mixed together thoroughly for between 3 and 10 minutes.
The dough is then given a short resting period after mixing (approx. 5 to 10 minutes) followed by scaling at the required weight. A second rest period is then applied following a second moulding in shape the dough as desired. The dough is then placed into a tin or tray. A leavening period for about 50 minutes at 85% relative humidity at 40° C. then follows.

[2] = tested on: moulds; experiment: Mould spoilage of sliced bread over shelf life; type: cell-based; settings: 12 ppm on flour weight; normal shelf life period
Protocol: as §1
When the bread is cool, the natamycin content in the bread is assayed. The natamycin content from bread containing encapsulated natamycin is higher than that in the bread containing unencapsulated natamycin, indicating the heat protective benefit of encapsulated natamycin. The bread is then sliced and observed over the normal shelf life period for growth of moulds.

[3] = tested on: common food spoilage yeasts and moulds; settings: cited from earlier work
[4] = reportedly; or more; cited from earlier work
[5] = Davies et al. 1998; cited from earlier work

Row | Compound | Leavening of bread dough [1] | Mould spoilage / extension of shelf life of sliced bread [2] | Concentrations inhibiting most strains [3] | Effective levels to preserve foodstuffs [4] | pH of optimum stability [5]
1 | C[C@@H]1C/C=C/C=C/C=C/C=C/[C@H](O[C@@H]2O[C@H](C)[C@@H](O)[C@H](N)[C@@H]2O)C[C@@H]2O[C@](O)(C[C@@H](O)C[C@H]3O[C@@H]3/C=C/C(=O)O1)C[C@H](O)[C@H]2C(=O)O [natamycin] | poor leavening | Delay of mould spoilage is observed | 1-15 ppm |  | 
2 | nisin (ITSISLCTPGCKTGALMGCNMKTATCHCSIHVSK; Lantibiotic nisin-A; UniProt P13068 24-57, looked up) [polypeptide bacteriocin produced by the lactic acid bacteria, Lactococcus lactis subsp. lactis] |  |  |  | 25-500 IU/g | 3
